Experiments:
[1] = Back-fire test of aerosol sprayers loaded with various gases (Test Example 1); conditions: sprayed 5 seconds towards burner flame, sprayer at 25° C.
Procedure: (§1) Test Example 1 relates to back-fire tests for the aerosol sprayer using various gases. Specifically, aerosol sprayers loaded with various gases acting as both propellant and refrigerant were prepared. And, after these aerosol sprayers were immersed in a thermostatic bath at 25° C. for 1 hour, each of them was arranged with the flame, as a fire origin, of an ignited burner so that the spray nozzle of its head cap and the flame lied horizontally in the same height. And, each gas was sprayed from the spray nozzle of the head cap in the aerosol sprayer for 5 seconds towards the flame as the fire origin to check if there was a backfire. This was repeated a plurality of times. Here, the fire origin was spaced from the spray nozzle at a distance of 15 cm and at a distance of 60 cm.
Further, HFO-1234ze as another alternative for chlorofluorocarbon was also subjected to the same backfire tests as for HFC-152a and HFC-134a in Text Example 1 mentioned above.

[2] = test system: Periplaneta fuliginosa; assay: Biological test: knockdown and fatality after 3 second spray from 50 cm (Test Example 3); type: in vivo; conditions: female adult
Procedure: (§2) In Test Example 3, modes of spraying from the spray nozzle 10 in the head cap 2 were examined. This is to examine the refrigerating and behavioral inhibiting effects on a noxious insect by a noxious insect behavioral inhibitor A which is sprayed from the spray nozzle 10. Specifically, a wooden flooring was prepared on which a glass ring (having a diameter of 9 cm and a height of 6 cm) was placed. […] And, one female adult of Periplaneta fuliginosa is introduced inside of the glass ring. On the other hand, two different head caps were prepared, one provided with a single spray nozzle 10 and the other provided with a pressure reducer means comprising an upper and a lower spray nozzle 10a and 10b. And, using them, the noxious insect behavioral inhibitor A is sprayed for 3 seconds toward the Periplaneta fuliginosa from a distance of 50 cm therefrom, and the state of the Periplaneta fuliginosa thereafter (possible knockdown after 2 minutes and after 1 hour and fatality after 24 hours) is observed. Further, the minimum temperatures of a target area of spraying are measured. And, the room temperature is 25° C., and the noxious insect behavioral inhibitor A is HFC-152a alone (100%). The two head caps 2, the one with the single spray nozzle 10 and the other with the two spray nozzles 10, are made to spray substantially at a identical rate of spraying.
(§3) Also, in Test Example 3, noxious insect behavioral inhibitors containing HFO-1234ze alone (100%), at a content of 75% and at a content of 50% were examined. What is mixed is dimethyl ether.

[3] = Back-fire test on content of HFC-152a / HFO-1234ze mixed with LPG or dimethyl ether (Test Example 2); conditions: varied mixture ratio, sprayed 5 seconds towards burner flame
Procedure: as §1, with “In Test” for “Test”, “Example 2, aerosol sprayers using HFC-152a as an alternative for chlorofluorocarbon were tested on its content. This, too,” for “Example 1”, “back-fire tests.” for “back-fire tests for the aerosol sprayer using various gases.”, “with HFC-152a alone” for “with various gases acting as both propellant”, “and mixtures of HFC-15a with LPG or dimethyl ether (in varied mixture ratio)” for “and refrigerant”, “15” for “15 cm and at a distance of 60”
Further, HFO-1234ze as another alternative for chlorofluorocarbon was also tested on its content as in Text Example 2 above. Specifically, aerosol sprayers loaded with HFO-1234ze alone and mixtures of HFO-1234ze with LPG or dimethyl ether (in varied mixture ratio) were prepared. […]

[4] = Mode of spraying: average particle size and minimum temperature of target area (Test Example 3); type: physicochemical
Procedure: as §2, §3

[5] = single spray nozzle (1.5 mm diameter), n = 10
[6] = two spray nozzles (upper 1.5 mm, lower 1.8 mm), n = 10
[7] = two spray nozzles (upper 1.5 mm, lower 1.8 mm)

SMILES | Backfire, 15 cm distant from Fire Origin [1] | Backfire, 60 cm distant from Fire Origin [1] | Fatality after 24 hours [2, 5] [%] | Knockdown rate after 1 hour [2, 5] [%] | Knockdown rate after 2 minutes ([2]; single spray nozzle (1.5 mm diameter), n = 10, room temperature 25° C.) [%] | Fatality after 24 hours [2, 6] [%] | Knockdown rate after 2 minutes [2, 6] [%] | Knockdown rate after 1 hour [2, 6] [%] | Backfire, 15 cm distant from Fire Origin (content test) [3] | Average particle size ([4]; single spray nozzle (1.5 mm diameter)) [μm] | Average particle size [4, 7] [μm]
FCC(F)(F)F [HFC-134a (100%)] | Not Backfired | Not Backfired |  |  |  |  |  |  |  |  | 
CC(F)F [HFC-152a (100%), 1,1-difluoroethane] | Not Backfired | Not Backfired | 10 | 40 | 90 | 100 | 100 | 100 | Not Back-fired | 57 | 97
FC=CC(F)(F)F [HFO-1234ze (100%), 1,3,3,3-tetrafluoropropene] | Not Backfired | Not Backfired |  |  |  | 60 | 100 | 100 | Not Back-fired |  | 120
COC [dimethyl ether (100%), dimethyl ether, reference compound] | Backfired | Backfired |  |  |  |  |  |  |  |  | 

Reference: patent publication US8596557B2, “Pest control aerosol sprayer” (Fumakilla Limited, priority 2008, dated 2013)
